Results from US9469618B2, “Thiadiazolidinediones as GSK-3 inhibitors” (ASD THERAPEUTICS PARTNERS LLC, priority 2012, dated 2016).
In brackets after ≈: the same amount, converted by molar mass.

Tests used:
[1] = target: T1, human recombinant GSK3β (N-terminal 6His-tagged recombinant enzyme with an H350L mutation) (Homo sapiens, UniProt P49841); assay: GSK-3 assay (Z'-LYTE FRET enzymatic activity); type: biochemical; conditions: 2 nM enzyme, 12.5 μM ATP, 2 μM Ser/Thr 9 peptide, 60 min at room temperature; concentration in M units; read-out: GSK-3 inhibition pEC50 average (converted)
T1 construct: 6His (N); purchased Millipore (Billerica, Mass., USA)
T1 sequence (P49841 whole entry, stated change not applied): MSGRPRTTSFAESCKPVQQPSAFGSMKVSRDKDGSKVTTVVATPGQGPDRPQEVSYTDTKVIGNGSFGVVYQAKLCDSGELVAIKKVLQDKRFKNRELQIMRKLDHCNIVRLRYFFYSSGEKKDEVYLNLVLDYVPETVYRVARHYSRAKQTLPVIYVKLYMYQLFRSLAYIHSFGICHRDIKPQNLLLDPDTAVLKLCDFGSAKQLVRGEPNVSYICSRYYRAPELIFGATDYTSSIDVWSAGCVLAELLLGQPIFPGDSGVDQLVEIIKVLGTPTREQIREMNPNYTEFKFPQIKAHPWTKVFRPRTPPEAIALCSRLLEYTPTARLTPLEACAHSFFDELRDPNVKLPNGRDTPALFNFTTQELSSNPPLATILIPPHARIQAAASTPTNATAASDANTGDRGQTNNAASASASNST
Description: The enzymatic activity of GSK3β was determined with a commercial system based on the Z'-LYTE® technology, available from Life Technologies (Carlsbad, Calif., USA), using human recombinant GSK3β (N-terminal 6His-tagged recombinant enzyme with an H350L mutation) from Millipore (Billerica, Mass., USA) as the enzyme source. This technology utilizes the fluorescence resonance energy transfer (“FRET”) process between fluorescein and coumarin. The assay principle is based on the differential sensitivity of phosphorylated and non-phosphorylated peptide to proteolytic cleavage, which precludes the energy transfer process between the two fluorophores attached to both sides of the cleavage site. […] The assay is performed in 384-well black plates, in a final volume of 10 μl, with 2 nM enzyme concentration in 50 mM Hepes pH 7.5, 50 mM MgCl2, 5 mM EGTA and 0.05% Brij-35, using 12.5 μM ATP and 2 μM substrate peptide. The latter is a synthetic peptide, provided by Invitrogen under the commercial name “Ser/Thr 9 peptide”, and it is based upon the sequence of a GSK3β substrate protein (glycogen synthase I) containing Ser-641. The peptide is labeled at both ends with fluorescein and coumarin. The assay is carried out in the presence of different concentrations of the tested compound, at a final 1% (v/v) DMSO concentration. After a 60 min incubation at room temperature, 5 μl of a commercial protease solution (sold by the same vendor in the assay kit) is added and a subsequent 1 h incubation at room temperature is performed, before adding 5 μl of a suitable “stop solution”, also provided by the vendor in the kit. After that, fluorescence intensity is recorded, monitoring emission at both 445 and 520 nm, upon excitation at 400 nm. An emission ratio is finally calculated, using the quotient among the emission at 445 nm divided by that at 520 nm.
The emission ratio of each tested sample is normalized to that of the control wells, so that for every compound concentration the percentage of inhibition is calculated by using the following equation:
[formula] where “S” is the emission from the wells with the tested sample, “E” is the average emission from control wells with full enzyme activity and “B” is the average emission from wells with full enzyme inhibition. Inhibition values obtained for every compound concentration are finally used to calculate the pEC50 of the tested compound, this parameter being the negative value of the logarithm of the compound concentration, in M units, causing 50% of its maximum effect (i.e., the higher the pEC50 value the higher the potency of the compound). For that purpose the data were fitted to the following equation using the nonlinear regression function of GraphPad™ Prism 5.0 (GraphPad Software Inc.): […]

[2] = Thermodynamic solubility of TDZDs; type: physicochemical; conditions: phosphate buffered saline, aqueous buffer, thermodynamic from solid; aqueous 0.01 M PBS pH 7.4, 2 mg/mL samples, 24 hours mixing, LC-UV
Description: Thermodynamic solubility was determined in duplicate from samples with a compound concentration of 2 mg/mL in aqueous 0.01 M phosphate buffered saline (PBS) pH 7.4 with a mixing period of 24 hours. Analysis and quantification was performed by LC-UV. Calibration lines were prepared for each compound from samples at of 1.0, 0.1, 0.01 and 0.001 mg/mL concentration in acetonitrile.

With `CCn1c(=O)sn(Cc2ccccc2)c1=O` [Compound 1, 2-benzyl-4-ethyl-[1,2,4]thiadiazolidine-3,5-dione] as the compound, how does the EC50 [1] read?
Its EC50 is 0.631 µM.

And the solubility thermodynamic at 24 h [2]?
The solubility thermodynamic at 24 h was 0.617 mg/mL (≈ 2610 µM).

What does the source list for `O=c1sn(Cc2ccccc2)c(=O)n1CC1CCCO1` (stereo not drawn) [Compound 2, 2-benzyl-4-(tetrahydro-furan-2-ylmethyl)-[1,2,4]thiadiazolidine-3,5-dione]?
EC50 [1]: 2 µM; solubility thermodynamic at 24 h [2]: 1.03 mg/mL (≈ 3520 µM)

With `CCOC(=O)Cn1c(=O)sn(C(Cc2ccccc2)C(=O)OCC)c1=O` (stereo not drawn) [Compound 3] as the compound, how does the EC50 [1] read?
The EC50 was 0.0251 µM.

What about the solubility thermodynamic at 24 h [2] of the same compound?
Its solubility thermodynamic at 24 h is 0.022 mg/mL (≈ 57.8 µM).

Which results are given for `O=c1sn(Cc2ccccc2)c(=O)n1CCO` [Compound 4, 2-benzyl-4-(2-hydroxy-ethyl)-[1,2,4]thiadiazolidine-3,5-dione]?
EC50 [1]: 1.58 µM; solubility thermodynamic at 24 h [2]: 1.84 mg/mL (≈ 7300 µM)

With `O=c1sn(-c2cccc3ccccc23)c(=O)n1Cc1ccccc1` [Compound 5, reference compound] as the compound, how does the solubility thermodynamic at 24 h [2] read?
The solubility thermodynamic at 24 h was no more than 0.001 mg/mL.
